pIC50: −log10 of the molar value. ≈ marks a conversion by molar mass, not a printed value. Read-outs that look alike come from different tables or passages of the source. Starred links: 1 amine or outer side, 2 acyl side, 3 side chain; linkers in the order of their positions; H or OH if unused. Positions of bridges follow the written chain, without caps; N, C: chain ends. Non-standard residues stand in square brackets, D forms with d. Residues, ends and D or L forms follow the SMILES beside them. *: point of attachment. X5 = CN(C(=O)CCC(=O)[*:3])[C@@H](CS[*:2])C(=O)[*:1]; Trp(7-Me) = Cc1cccc2c(C[C@H](N)C(=O)O)c[nH]c12; X1 = O=C(CCCCN[*:3])N[C@@H](CS[*:2])C(=O)[*:1]; αMeLys(Me2) = CN(C)CCCC[C@](C)(N)C(=O)O; 2Nal = N[C@@H](Cc1ccc2ccccc2c1)C(=O)O; d2Nal = N[C@H](Cc1ccc2ccccc2c1)C(=O)O; 3Pal = N[C@@H](Cc1cccnc1)C(=O)O; Lys(Me) = CNCCCC[C@H](N)C(=O)O; αMeL = CC(C)C[C@](C)(N)C(=O)O; Thp = NC1(C(=O)O)CCOCC1; Me2NCH2CH2 = CN(C)CC*; Aib = CC(C)(N)C(=O)O; Ava = NCCCCC(=O)O; Sar = CNCC(=O)O
Columns and labels:
[1] = target: T1, human interleukin-23 receptor (recombinant human IL-23R-Fc chimera) (Homo sapiens, UniProt Q5VWK5); assay: Human ELISA IL23/IL23R (assay for specific human IL23R antagonists); format: binding; conditions: Table 10; read-out: Human ELISA IL23/IL23R IC50
T1 construct: Fc (IgG Fc fusion)
How it was run: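 Competition format: peptide dilutions compete for IL23R-Fc chimera (0.1 μg/ml final, 60 min, room temperature) binding to immobilized human IL23 coated at […] overnight at 4 °C. Read-out is fluorogenic HRP signal from goat anti-hu-IgG1 detecting captured receptor.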

[2] = tested on: IL-23 induced STAT3 signaling in HEK-Blue™ IL-23 cells; assay: IL-23 induced STAT3 signaling in HEK-Blue IL-23 cells (SEAP reporter); format: cell-based; conditions: human IL23 0.25 ng/ml, read-out: pSTAT3
How it was run: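 Secreted SEAP, read at OD 620-655 nm after 45 min QUANTI-Blue development, reports STAT3 activation. Beforehand, cells were exposed to peptide dilutions for 60 min at 37 °C and then to 0.25 ng/ml final human IL-23 overnight, at 10,000 cells/well.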

[3] = Chemical stability assessment of peptides (relative purity loss); format: physicochemical; conditions: 24 hours at 37° C.
How it was run: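 Peptide solutions at 1 mg/ml (purity-corrected) in 1:1 acetonitrile with 50 mM HCl pH 1.2, or 50 mM phosphate pH 6.5 or pH 7.4, held 24 hours at 2° C. and 37° C. Supernatants analysed by UHPLC-UV; relative purity loss taken as percent drop in peak-area purity from 0 to 24 hours at 37° C.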

Pepsin = tested on: T2, Pepsin; assay: Protease stability in simulated gastric fluid (Pepsin-SGF, FaSSGF); format: in vitro ADME; conditions: simulated gastric fluid with pepsin (Pepsin-SGF), 60 min, 1 μM peptide, 37° C., read-out: FaSSGF 60 (min), remaining percent of peptide
T2 construct: purchased Merck Millipore
How it was run: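 LCMS/MS peak areas, normalised to the time-0 sample as 100%, give percent remaining. Conditions: 37° C incubation of 1 μM final peptide in simulated gastric fluid with pepsin; ethanol/0.1% HCOOH quench at 0, 60, 120, 240 min.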

Pancreatin = assay: Protease stability in simulated intestinal fluid (Pancreatin-SIF, FaSSIF); format: in vitro ADME; conditions: 1 μM peptide, 37° C.; for remaining at 1 h, 1 µM: 60 min, read-out: FaSSIF 60 (min), remaining percent of peptide; for remaining at 2 h, 1 µM: 120 min, read-out: FaSSIF 120 (min), remaining percent of peptide; for remaining at 4 h, 1 µM: 240 min, read-out: FaSSIF 240 (min), remaining percent of peptide
How it was run: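 LC-MS/MS peak areas at 0, 60, 120 and 240 min, normalised to time 0 as 100%, give percent remaining. Reactions used 1 μM final peptide at 37° C in pancreatin-SIF (1 mg pancreatin in 10 mL SIF concentrate) and were stopped with ethanol containing 0.1% HCOOH.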

[4] = Solubility testing of peptides at different pH; format: physicochemical; conditions: target concentration 1 mg/ml, 2 hours agitation
How it was run: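 Four buffers were used: 50 mM HCl pH 1.2 and 50 mM phosphate at pH 6.5, 7.4 and 9.0, each receiving dried-down compound at a 1 mg/mL target. After 2 h gentle shaking and 0.45 μm filtration, UV peak areas were compared with a DMSO standard curve of known concentration, allowing for extinction coefficients.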

[5] = 50 mM HCl buffer, 50 mM HCl pH 1.2, read-out: Solubility Buffer pH 1.2
[6] = 50 mM phosphate buffer pH 6.5, read-out: Solubility Buffer pH 6.5
[7] = 50 mM phosphate buffer pH 7.4, read-out: Solubility Buffer pH 7.4
[8] = 50 mM phosphate buffer pH 9.0, read-out: Solubility Buffer pH 9.0

Row | Compound | pIC50 [1] | pIC50 [2] | Chemical stability (relative purity loss) Buffer pH 1.2 ([3]; 50 mM HCl pH 1.2 + acetonitrile (1:1)) [%] | Chemical stability (relative purity loss) Buffer pH 6.5 ([3]; 50 mM phosphate buffer pH 6.5 + acetonitrile (1:1)) [%] | Chemical stability (relative purity loss) Buffer pH 7.4 ([3]; 50 mM phosphate buffer pH 7.4 + acetonitrile (1:1)) [%] | remaining at 1 h, 1 µM (Pepsin) [%] | remaining at 1 h, 1 µM (Pancreatin) [%] | remaining at 2 h, 1 µM (Pancreatin) [%] | remaining at 4 h, 1 µM (Pancreatin) [%] | solubility at 2 h [4, 5] [µg/mL] | solubility at 2 h [4, 6] [µg/mL] | solubility at 2 h [4, 7] [µg/mL] | solubility at 2 h [4, 8] [µg/mL]
1 | CC(=O)N[C@H]1CCCCNC(=O)[C@@H]2CSSC[C@H](NC(=O)[C@H](CCC(N)=O)NC(=O)[C@H](Cc3c[nH]c4ccccc34)NC1=O)C(=O)N[C@@H](Cc1ccc(OCCN(C)C)cc1)C(=O)N[C@@H](Cc1ccc3ccccc3c1)C(=O)NC1(CCOCC1)C(=O)N[C@H](C(=O)N[C@@H](CC(N)=O)C(=O)NCC(N)=O)CCC(=O)NCCCCC(=O)N2 [compound 30] (Ac-KWQCY(Me2NCH2CH2)[2Nal][Thp]ENG-NH2; linker 1-4-8 via X1) | 9.27 | 8.27 | 18.7 | 2.1 | 3.7 | 87 | 93 | 92 | 83 | – | – | – | –
2 | CC(=O)NCCCC[C@@H]1NC(=O)[C@H](Cc2c[nH]c3ccccc23)NC(=O)[C@@H](NC(C)=O)CCCCNC(=O)[C@@H]2CSSC[C@H](NC1=O)C(=O)N[C@@H](Cc1ccc(OCCN(C)C)cc1)C(=O)N[C@H](Cc1ccc3ccccc3c1)C(=O)N[C@@](C)(CCCCN(C)C)C(=O)N[C@H](C(=O)N[C@@H](CC(N)=O)C(=O)N[C@@H](Cc1cccnc1)C(=O)N(C)CC(N)=O)CCC(=O)NCCCCC(=O)N2 [compound 59] (Ac-KWK(Ac)CY(Me2NCH2CH2)[d2Nal][αMeLys(Me2)]EN[3Pal][Sar]-NH2; linker 1-4-8 via X1) | 9.62 | 10.15 | – | – | – | 77 | 98 | 97 | 97 | ≥ 1090 | ≥ 1030 | ≥ 1090 | –
3 | CC(=O)NCCCC[C@@H]1NC(=O)[C@H](Cc2c[nH]c3c(C)cccc23)NC(=O)[C@H]([C@@H](C)O)NC(=O)[C@H](CC(N)=O)NC(=O)[C@@H]2CSSC[C@H](NC1=O)C(=O)N[C@@H](Cc1ccc(OCCN(C)C)cc1)C(=O)N[C@@H](Cc1ccc3ccccc3c1)C(=O)NC1(CCOCC1)C(=O)N[C@H](C(=O)N[C@@H](CO)C(=O)N[C@@H](Cc1cccnc1)C(=O)N(C)CC(N)=O)CCC(=O)NCCCCC(=O)N2 [compound 56] ([Ava]CNT[Trp(7-Me)]K(Ac)CY(Me2NCH2CH2)[2Nal][Thp]ES[3Pal][Sar]-NH2; disulfide 2-7; lactam N-11) | 9.24 | 9.80 | – | – | – | 86 | 90 | 76 | 77 | ≥ 1090 | ≥ 920 | ≥ 1030 | –
4 | C[C@@H](O)[C@@H]1NC(=O)[C@H](CC(N)=O)NC(=O)[C@@H]2CSSC[C@H](NC(=O)[C@H](CCC(N)=O)NC(=O)[C@H](Cc3c[nH]c4ccccc34)NC1=O)C(=O)N[C@@H](Cc1ccc(OCCN)cc1)C(=O)N[C@H](Cc1ccc3ccccc3c1)C(=O)NC(C)(C)C(=O)N[C@H](C(=O)N[C@@H](CC(N)=O)C(=O)N[C@@H](CC(N)=O)C(N)=O)CCC(=O)NCCCCC(=O)N2 [compound 5] | 9.21 | 8.02 | – | – | – | 82 | 94 | 86 | 64 | ≥ 1110 | ≥ 1230 | ≥ 1230 | –
5 | CC(=O)NCCCC[C@@H]1NC(=O)[C@H](Cc2c[nH]c3c(C)cccc23)NC(=O)[C@@H](NC(C)=O)CCCCNC(=O)[C@@H]2CSSC[C@H](NC1=O)C(=O)N[C@@H](Cc1ccc(OCCN(C)C)cc1)C(=O)N[C@@H](Cc1ccc3ccccc3c1)C(=O)NC1(CCOCC1)C(=O)N[C@H](C(=O)N[C@@H](CC(N)=O)C(=O)N[C@@H](Cc1cccnc1)C(=O)N(C)CC(N)=O)CCCCN(C)C(=O)CCC(=O)N2C [compound 74] (Ac-K[Trp(7-Me)]K(Ac)CY(Me2NCH2CH2)[2Nal][Thp][Lys(Me)]N[3Pal][Sar]-NH2; linker 1-4-8 via X5) | 9.27 | 9.92 | – | – | – | 92 | 87 | 84 | 78 | ≥ 1390 | ≥ 980 | 330 (≈ 174 µM) | 180 (≈ 95.1 µM)
6 | Cc1cccc2c(C[C@@H]3NC(=O)[C@H]([C@@H](C)O)NC(=O)[C@H](CC(N)=O)NC(=O)[C@@H]4CSSC[C@H](NC(=O)[C@H](CCC(N)=O)NC3=O)C(=O)N[C@@H](Cc3ccc(OCCN(C)C)cc3)C(=O)N[C@@H](Cc3ccc5ccccc5c3)C(=O)N[C@@](C)(CC(C)C)C(=O)N[C@H](C(=O)N[C@@H](CC(N)=O)C(=O)N[C@@H](Cc3cccnc3)C(=O)N(C)CC(N)=O)CCC(=O)NCCCCC(=O)N4)c[nH]c12 [compound 63] ([Ava]CNT[Trp(7-Me)]QCY(Me2NCH2CH2)[2Nal][αMeL]EN[3Pal][Sar]-NH2; disulfide 2-7; lactam N-11) | 9.39 | 9.70 | – | – | – | 95 | 90 | 86 | 81 | ≥ 910 | ≥ 980 | ≥ 910 | –
7 | CC(=O)NCCCC[C@@H]1NC(=O)[C@H](Cc2c[nH]c3c(C)cccc23)NC(=O)[C@@H](NC(C)=O)CCCCNC(=O)[C@@H]2CSSC[C@H](NC1=O)C(=O)N[C@@H](Cc1ccc(OCCN(C)C)cc1)C(=O)N[C@@H](Cc1ccc3ccccc3c1)C(=O)NC1(CCOCC1)C(=O)N[C@H](C(=O)N[C@@H](CC(N)=O)C(=O)N[C@@H](Cc1cccnc1)C(=O)N(C)CC(N)=O)CCC(=O)NCCCCC(=O)N2 [compound 66] (Ac-K[Trp(7-Me)]K(Ac)CY(Me2NCH2CH2)[2Nal][Thp]EN[3Pal][Sar]-NH2; linker 1-4-8 via X1) | 9.28 | 9.82 | – | – | – | 94 | 94 | 94 | 88 | ≥ 1630 | ≥ 1040 | ≥ 1290 | ≥ 1130
8 | COc1ccc(C[C@@H]2NC(=O)[C@@H]3CSSC[C@H](NC(=O)CCCCNC(=O)CC[C@@H](C(=O)N[C@@H](CC(N)=O)C(=O)N[C@@H](CC(N)=O)C(N)=O)NC(=O)C(C)(C)NC(=O)[C@H](Cc4ccc5ccccc5c4)NC2=O)C(=O)N[C@@H](CC(N)=O)C(=O)N[C@@H]([C@@H](C)O)C(=O)N[C@@H](Cc2c[nH]c4ccccc24)C(=O)N[C@@H](CCC(N)=O)C(=O)N3)cc1 [compound 1] ([Ava]CNTWQCY(Me)[2Nal][Aib]ENN-NH2; disulfide 2-7; lactam N-11) | 9.14 | 7.73 | – | – | – | 2 | 72 | 74 | 58 | 100 (≈ 60.6 µM) | < 50 | < 50 | –

From patent US20260258084A1, “New Peptides as Selective IL-23 Receptor Antagonists” (Sanofi, priority 2022, published 2026)
